How the values were obtained:
[1] = test system: U2OS/PD-L1 cells and Jurkat-PD-1-SHP cells; assay: Src homology region 2 domain-containing phosphatase (SHP) assay; type: cell-based; details: Homo sapiens, U2OS
Protocol: Example B. Src Homology Region 2 Domain-Containing Phosphatase (SHP) Assay
U2OS/PD-L1 cells (DiscoveRx Corporation) were maintained in McCoy's 5A medium with addition of 10% FBS, 0.25 μg/ml Puromycin. After removing the culture media, the cell medium was replaced with assay medium (RPMI1640 medium with 1% FBS). The U2OS/PD-L1 cells were then added in 384-well black clear bottom assay plate (CELLCOAT® Tissue Culture Plates, Greiner Bio-One) at 5000 cells per well in 20 μL assay medium. Test compounds were prepared by serial dilution in DMSO and 125 nL compound were first transferred to the 384 REMP plate well (Thermofisher) by ECHO liquid handler (Labcyte) followed with addition of 27.5 μL assay medium. 5 μL/well compounds in the assay medium were transferred to the cell plate with 0.05% DMSO in the final assay at […]. Jurkat-PD-1-SHP cells (DiscoveRx Corporation) were cultured in RPMI1640 medium supplemented with 10% FBS, 250 μg/ml Hygromycin B, 500 μg/ml G418. After the replacement of culture media with assay medium, 5,000 Jurkat-PD-1-SHP cells in 20 μL were dispensed into each well. The assay plate was incubated at 37° C., 5% CO2 for 2 hours before 2.5 μL PathHunter reagent 1 (DiscoveRx Corporation) were added to each well. The assay plate was shaken for 1 min at 350 rpm in the dark followed with addition of 10 μL PathHunter reagent 2 (DiscoveRx Corporation). Chemiluminescent signal was recorded with TopCount reader (Perkin Elmer) after incubation at room temperature for 1 hour. Wells with DMSO were served as the positive controls and wells containing no cells were used as negative controls. IC50 determination was performed by fitting the curve of percentage of control activity versus the log of the compound concentration using the GraphPad Prism 6.0 software.

[2] = target: PD-1/PD-L1 protein/protein interaction (recombinant human PD-L1 and human PD-1) (Homo sapiens (Human), UniProt Q9NZQ7); assay: Homogeneous Time-Resolved Fluorescence (HTRF) PD-1/PD-L1 binding assay
Protocol: Example A. Homogeneous Time-Resolved Fluorescence (HTRF) PD-1/PD-L1 Binding Assay
The assays were conducted in a standard black 384-well polystyrene plate with a final volume of 20 μL. Inhibitors were first serially diluted in DMSO and then added to the plate wells before the addition of other reaction components. The final concentration of DMSO in the assay was 1%. The assays were carried out at 25° C. in the PBS buffer (pH 7.4) with 0.05% Tween-20 and 0.1% BSA. Recombinant human PD-L1 protein (19-238) with a His-tag at the C-terminus was purchased from AcroBiosystems (PD1-H5229). Recombinant human PD-1 protein (25-167) with Fc tag at the C-terminus was also purchased from AcroBiosystems (PD1-H5257). PD-L1 and PD-1 proteins were diluted in the assay buffer and 10 μL was added to the plate well. Plates were centrifuged and proteins were preincubated with inhibitors for 40 minutes. The incubation was followed by the addition of 10 μL of HTRF detection buffer supplemented with Europium cryptate-labeled anti-human IgG (PerkinElmer-AD0212) specific for Fc and anti-His antibody conjugated to SureLight®-Allophycocyanin (APC, PerkinElmer-AD0059H). After centrifugation, the plate was incubated at 25° C. for 60 min. before reading on a PHERAstar FS plate reader (665 nm/620 nm ratio). Final concentrations in the assay were—3 nM PD1, 10 nM PD-L1, 1 nM europium anti-human IgG and 20 nM anti-His-Allophycocyanin. IC50 determination was performed by fitting the curve of percent control activity versus the log of the inhibitor concentration using the GraphPad Prism 5.0 software.

[3] = test system: PD-L1 aAPC/CHO-K1 cells and Jurkat-PD-1-NFAT effector cells; assay: Nuclear factor of activated T-cells (NFAT) assay; type: cell-based; details: Cricetulus griseus, CHO-K1
Protocol: Example C. Nuclear Factor of Activated T-Cells (NFAT) Assay
PD-L1 aAPC/CHO-K1 cells (Promega) were maintained in F-12 medium with addition of 10% FBS, 200 μg/ml Hygromycin B, 250 μg/ml Geneticin (G418). Jurkat-PD-1-NFAT effector cells (Promega) were cultured in RPMI 1640 medium supplemented with 10% FBS, 100 μg/ml Hygromycin B, 500 μg/ml G418. The culture media of PD-L1 aAPC/CHO-K1 cells were first replaced with assay medium (RPMI1640 medium with 1% FBS). The PD-L1 aAPC/CHO-K1 cells were then added in a white 384-well white clear bottom assay plate (CELLCOAT® Tissue Culture Plates, Greiner Bio-One) at 8000 per well in 10 μL assay medium. Test compounds were prepared by serial dilution in DMSO and 0.8 μL test compounds in DMSO were first transferred to the 384 REMP plate well (Thermofisher) by PlateMate Plus (Thermofisher) followed with addition of 50 μL plating medium. 5 μL compounds in the assay medium were transferred to the cells with 0.4% DMSO in the final assay at 2 μM. After removing the culture media, 10,000 Jurkat-PD-1-NFAT effector cells in 5 μL assay medium was dispensed into each well. The assay plate was incubated at 37° C., 5% CO2 for 24 hours. After the assay plate was equilibrated to room temp for 15 minutes, 20 µL/well of Bio-Glo™ reagent (Promega) were added. After 8 minutes incubation at room temperature, luminescence was read at with Pherastar microplate reader (BMG Labtech). The fold of induction (FOI) was calculated based on the ratio of luminescence normalized to the DMSO wells within each assay plate. The maximum percentage of induction was reported based on the ratio between the highest FOI of each compound and the maximum FOI of control compound within each assay plate. Wells with DMSO were served as the negative controls and wells containing control compound with the highest FOI were used as positive controls. EC50 determination was performed by fitting the curve of percent control activity versus the log of the compound concentration using the GraphPad Prism 6.0 software.

Sequence of PD-1/PD-L1 protein/protein interaction (recombinant human PD-L1 and human PD-1) (Q9NZQ7 19-238): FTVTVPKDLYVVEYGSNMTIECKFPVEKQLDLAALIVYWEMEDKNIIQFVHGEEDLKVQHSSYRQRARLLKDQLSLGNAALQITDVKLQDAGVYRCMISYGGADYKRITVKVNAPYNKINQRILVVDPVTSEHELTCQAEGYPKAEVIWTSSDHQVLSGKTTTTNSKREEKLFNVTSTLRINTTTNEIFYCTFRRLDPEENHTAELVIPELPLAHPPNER

Row | IC50 [1] [nM] | IC50 [2] [nM] | Structure (SMILES) | EC50 [3] [nM]
1 | ≤ 10 | ≤ 5 | Cn1c(C(=O)Nc2cccc(-c3cccc(NC(=O)c4nc5c(n4C)CCNC5)c3C#N)c2Cl)nc2c1CCN(CCC13CCC(C(=O)O)(CC1)C3)C2 [Example 46, 4-(2-(2-((2-chloro-2′-cyano-3′-(1-methyl-4,5,6,7-tetrahydro-1H-imidazo[4,5-c]pyridine-2-carboxamido)-[1,1′-biphenyl]-3-yl)carbamoyl)-1-methyl-1,4,6,7-tetrahydro-5H-imidazo[4,5-c]pyridin-5-yl)ethyl)bicyclo[2.2.1]heptane-1-carboxylic Acid] | 10 to 100
2 | ≤ 10 | ≤ 5 | CC(C)N1CCc2c(nc(C(=O)Nc3cccc(-c4cccc(NC(=O)c5nc6c(n5C)CCN(CCC57CCC(C(=O)O)(CC5)C7)C6)c4Cl)c3Cl)n2C)C1 [Example 5, 4-(2-(2-((2,2′-dichloro-3′-(5-isopropyl-1-methyl-4,5,6,7-tetrahydro-1H-imidazo[4,5-c]pyridine-2-carboxamido)-[1,1′-biphenyl]-3-yl)carbamoyl)-1-methyl-1,4,6,7-tetrahydro-5H-imidazo[4,5-c]pyridin-5-yl)ethyl)bicyclo[2.2.1]heptane-1-carboxylic acid] | ≤ 10
3 | ≤ 10 | ≤ 5 | Cn1c(C(=O)Nc2cccc(-c3cccc(NC(=O)c4nc5c(n4C)CCN(Cc4cc(C(=O)O)n[nH]4)C5)c3Cl)c2Cl)nc2c1CCN(CCC13CCC(C(=O)O)(CC1)C3)C2 [Example 26, 5-((2-((3′-(5-(2-(4-carboxybicyclo[2.2.1]heptan-1-yl)ethyl)-1-methyl-4,5,6,7-tetrahydro-1H-imidazo[4,5-c]pyridine-2-carboxamido)-2,2′-dichloro-[1,1′-biphenyl]-3-yl)carbamoyl)-1-methyl-1,4,6,7-tetrahydro-5H-imidazo[4,5-c]pyridin-5-yl)methyl)-1H-pyrazole-3-carboxylic acid] | 10 to 100
4 | ≤ 10 | ≤ 5 | Cc1c(NC(=O)c2nc3c(n2C)CCN(CCO)C3)cccc1-c1cccc(NC(=O)c2nc3c(n2C)CCN(CCC24CCC(C(=O)O)(CC2)C4)C3)c1C [Example 59, 4-(2-(2-((3′-(5-(2-hydroxyethyl)-1-methyl-4,5,6,7-tetrahydro-1H-imidazo[4,5-c]pyridine-2-carboxamido)-2,2′-dimethyl-[1,1′-biphenyl]-3-yl)carbamoyl)-1-methyl-1,4,6,7-tetrahydro-5H-imidazo[4,5-c]pyridin-5-yl)ethyl)bicyclo[2.2.1]heptane-1-carboxylic acid] | 100 to 500
5 | ≤ 10 | ≤ 5 | Cc1c(NC(=O)c2nc3c(n2C)CCN(C)C3)cccc1-c1cccc(NC(=O)c2nc3c(n2C)CCN(CCC24CCC(C(=O)O)(CC2)C4)C3)c1Cl [Example 29, 4-(2-(2-((2-chloro-3′-(1,5-dimethyl-4,5,6,7-tetrahydro-1H-imidazo[4,5-c]pyridine-2-carboxamido)-2′-methyl-[1,1′-biphenyl]-3-yl)carbamoyl)-1-methyl-1,4,6,7-tetrahydro-5H-imidazo[4,5-c]pyridin-5-yl)ethyl)bicyclo[2.2.1]heptane-1-carboxylic acid] | 10 to 100
6 | ≤ 10 | ≤ 5 | CN1CCc2c(nc(C(=O)Nc3cccc(-c4cccc(NC(=O)c5nc6c(n5C)CCN(CCC57CCC(C(=O)O)(CC5)C7)C6)c4Cl)c3C#N)n2C)C1 [Example 48, 4-(2-(2-((2-chloro-2′-cyano-3′-(1,5-dimethyl-4,5,6,7-tetrahydro-1H-imidazo[4,5-c]pyridine-2-carboxamido)-[1,1′-biphenyl]-3-yl)carbamoyl)-1-methyl-1,4,6,7-tetrahydro-5H-imidazo[4,5-c]pyridin-5-yl)ethyl)bicyclo[2.2.1]heptane-1-carboxylic acid] | 10 to 100
7 | ≤ 10 | ≤ 5 | Cc1c(NC(=O)c2nc3c(n2C)CCNC3)cccc1-c1cccc(NC(=O)c2nc3c(n2C)CCN(CCC24CCC(C(=O)O)(CC2)C4)C3)c1C [Example 53, 4-(2-(2-((2,2′-dimethyl-3′-(1-methyl-4,5,6,7-tetrahydro-1H-imidazo[4,5-c]pyridine-2-carboxamido)-[1,1′-biphenyl]-3-yl)carbamoyl)-1-methyl-1,4,6,7-tetrahydro-5H-imidazo[4,5-c]pyridin-5-yl)ethyl)bicyclo[2.2.1]heptane-1-carboxylic Acid] | 10 to 100
8 | – | ≤ 5 | C[C@@H](O)CN1CCc2c(nc(C(=O)Nc3cccc(-c4cccc(NC(=O)c5nc6c(n5C)CCN(CCC57CCC(C(=O)O)(CC5)C7)C6)c4Cl)c3C#N)n2C)C1 [Example 49, (R)-4-(2-(2-((2-chloro-2′-cyano-3′-(5-(2-hydroxypropyl)-1-methyl-4,5,6,7-tetrahydro-1H-imidazo[4,5-c]pyridine-2-carboxamido)-[1,1′-biphenyl]-3-yl)carbamoyl)-1-methyl-1,4,6,7-tetrahydro-5H-imidazo[4,5-c]pyridin-5-yl)ethyl)bicyclo[2.2.1]heptane-1-carboxylic Acid] | 10 to 100
9 | – | ≤ 5 | Cn1c(C(=O)Nc2cccc(-c3cccc(NC(=O)c4nc5c(n4C)CCN(C4CCOCC4)C5)c3C#N)c2Cl)nc2c1CCN(CCC13CCC(C(=O)O)(CC1)C3)C2 [Example 47, 4-(2-(2-((2-chloro-2′-cyano-3′-(1-methyl-5-(tetrahydro-2H-pyran-4-yl)-4,5,6,7-tetrahydro-1H-imidazo[4,5-c]pyridine-2-carboxamido)-[1,1′-biphenyl]-3-yl)carbamoyl)-1-methyl-1,4,6,7-tetrahydro-5H-imidazo[4,5-c]pyridin-5-yl)ethyl)bicyclo[2.2.1]heptane-1-carboxylic acid] | 10 to 100
10 | – | ≤ 5 | Cn1c(C(=O)Nc2cccc(-c3cccc(NC(=O)c4nc5c(n4C)CCN(CCO)C5)c3C#N)c2Cl)nc2c1CCN(CCC13CCC(C(=O)O)(CC1)C3)C2 [Example 50, 4-(2-(2-((2-chloro-2′-cyano-3′-(5-(2-hydroxyethyl)-1-methyl-4,5,6,7-tetrahydro-1H-imidazo[4,5-c]pyridine-2-carboxamido)-[1,1′-biphenyl]-3-yl)carbamoyl)-1-methyl-1,4,6,7-tetrahydro-5H-imidazo[4,5-c]pyridin-5-yl)ethyl)bicyclo[2.2.1]heptane-1-carboxylic acid] | 10 to 100

— patent US10618916B2, “Heterocyclic compounds as immunomodulators” (Incyte Corporation, priority 2018, dated 2020)
